Patent US12247064B2, “Modified ligand-gated ion channels and methods of use” (Howard Hughes Medical Institute, priority 2017, dated 2025)
Read-outs that look alike come from different tables or passages of the source.

Assays:
5HT3-R = biological target: T1, 5HT3-R (Homo sapiens, UniProt P46098); experiment: Agonist potency at 5HT3-R; assay type: cell-based
T1 sequence (P46098 24-478): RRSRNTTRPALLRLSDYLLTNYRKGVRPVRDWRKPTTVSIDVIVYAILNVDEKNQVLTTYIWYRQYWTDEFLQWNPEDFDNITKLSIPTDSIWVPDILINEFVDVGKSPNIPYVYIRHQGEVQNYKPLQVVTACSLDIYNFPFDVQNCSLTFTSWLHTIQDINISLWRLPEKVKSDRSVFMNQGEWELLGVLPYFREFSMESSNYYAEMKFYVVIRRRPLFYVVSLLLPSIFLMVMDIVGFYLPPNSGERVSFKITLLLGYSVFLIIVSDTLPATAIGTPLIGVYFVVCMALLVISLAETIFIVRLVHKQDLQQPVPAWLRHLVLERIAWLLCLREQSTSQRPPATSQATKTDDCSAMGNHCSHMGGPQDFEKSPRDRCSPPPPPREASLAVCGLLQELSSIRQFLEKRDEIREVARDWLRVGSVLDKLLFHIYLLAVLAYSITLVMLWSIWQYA

α7-5HT3 [1] = biological target: T2, α7-5HT3 (Homo sapiens, UniProt P36544, M226I/T225I)
T2 sequence (P36544 with tags, fused parts or gaps T225I/M226I limits assumed): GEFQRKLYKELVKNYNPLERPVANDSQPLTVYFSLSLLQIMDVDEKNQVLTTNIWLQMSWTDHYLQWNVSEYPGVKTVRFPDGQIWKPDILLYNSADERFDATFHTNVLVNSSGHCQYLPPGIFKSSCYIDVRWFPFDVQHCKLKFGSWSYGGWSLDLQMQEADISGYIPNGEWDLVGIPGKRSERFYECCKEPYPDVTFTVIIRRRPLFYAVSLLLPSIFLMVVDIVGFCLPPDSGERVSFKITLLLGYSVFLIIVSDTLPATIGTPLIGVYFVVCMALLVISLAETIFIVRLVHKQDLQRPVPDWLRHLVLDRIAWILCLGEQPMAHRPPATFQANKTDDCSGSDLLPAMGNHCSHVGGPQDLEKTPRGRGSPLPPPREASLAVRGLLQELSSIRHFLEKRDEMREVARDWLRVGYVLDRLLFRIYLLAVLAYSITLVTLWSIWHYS

α7-GlyR [2] = biological target: T3, α7-GlyR (Homo sapiens, UniProt P36544); experiment: cell-based
T3 sequence (P36544 with tags, fused parts or gaps): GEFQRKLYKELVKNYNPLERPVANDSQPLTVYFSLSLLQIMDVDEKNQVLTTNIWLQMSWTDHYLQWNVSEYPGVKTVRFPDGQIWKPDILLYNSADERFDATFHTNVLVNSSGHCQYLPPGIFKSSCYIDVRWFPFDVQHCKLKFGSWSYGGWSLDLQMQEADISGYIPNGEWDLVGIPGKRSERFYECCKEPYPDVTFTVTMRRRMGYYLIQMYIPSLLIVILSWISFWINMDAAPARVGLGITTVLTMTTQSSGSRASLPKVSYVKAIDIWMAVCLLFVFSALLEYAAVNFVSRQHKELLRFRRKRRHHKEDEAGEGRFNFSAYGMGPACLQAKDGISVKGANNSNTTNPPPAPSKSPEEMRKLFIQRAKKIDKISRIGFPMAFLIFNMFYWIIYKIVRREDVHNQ

α4β2 nAChR = α4β2 nAChR (Homo sapiens, UniProt P17787+P43681); experiment: Agonist potency at α4β2 nAChR
Sequence of α4β2 nAChR (P43681 29-627 limits assumed): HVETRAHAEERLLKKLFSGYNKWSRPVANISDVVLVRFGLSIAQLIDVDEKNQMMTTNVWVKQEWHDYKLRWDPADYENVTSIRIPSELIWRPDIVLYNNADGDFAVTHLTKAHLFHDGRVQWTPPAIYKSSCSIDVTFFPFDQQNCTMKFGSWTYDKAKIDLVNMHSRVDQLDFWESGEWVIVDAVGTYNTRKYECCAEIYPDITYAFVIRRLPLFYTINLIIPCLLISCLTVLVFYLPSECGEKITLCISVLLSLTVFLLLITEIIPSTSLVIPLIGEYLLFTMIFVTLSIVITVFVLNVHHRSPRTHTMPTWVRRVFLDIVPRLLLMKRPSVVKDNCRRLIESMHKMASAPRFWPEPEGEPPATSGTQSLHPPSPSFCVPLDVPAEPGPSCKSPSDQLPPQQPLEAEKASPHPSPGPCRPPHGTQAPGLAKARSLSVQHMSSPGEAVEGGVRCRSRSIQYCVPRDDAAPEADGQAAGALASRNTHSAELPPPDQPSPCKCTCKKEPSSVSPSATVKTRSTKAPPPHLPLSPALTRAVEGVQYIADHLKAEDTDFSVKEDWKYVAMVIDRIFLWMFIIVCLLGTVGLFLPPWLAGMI
Sequence of α4β2 nAChR (P17787 26-502): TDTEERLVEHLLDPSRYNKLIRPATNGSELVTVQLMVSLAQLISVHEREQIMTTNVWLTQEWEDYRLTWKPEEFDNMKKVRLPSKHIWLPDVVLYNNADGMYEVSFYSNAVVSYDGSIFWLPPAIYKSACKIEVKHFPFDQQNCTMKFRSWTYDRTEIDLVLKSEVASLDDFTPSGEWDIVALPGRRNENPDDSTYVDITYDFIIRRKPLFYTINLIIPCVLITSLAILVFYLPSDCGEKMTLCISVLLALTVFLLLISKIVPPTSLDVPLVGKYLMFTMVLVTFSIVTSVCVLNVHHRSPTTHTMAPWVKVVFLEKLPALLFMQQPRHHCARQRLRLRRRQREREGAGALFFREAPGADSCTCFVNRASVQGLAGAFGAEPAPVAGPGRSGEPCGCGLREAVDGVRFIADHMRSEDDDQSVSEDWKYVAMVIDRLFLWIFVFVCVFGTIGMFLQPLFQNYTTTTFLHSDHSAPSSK

α7-GlyR [3] = biological target: T3, α7-GlyR
[4] = test system: α7GlyR G175K / A298G mutant chimeric channels; assay type: cell-based, human
α7GABAc W298A (GABAA-ρ) = experiment: Agonist potency at α7GABAc channel with W298A (Table 7); assay type: cell-based, human; conditions: a7GABAc Q79G L141F W298A
[5] = test system: mice expressing PSAM^4-GlyR unilaterally in SNr; experiment: Unilateral SNr silencing rotation assay; assay type: in vivo, mouse
α7-5HT3 [6] = biological target: T2, α7-5HT3; remark: listed apart in the source
α7GlyR G175K = biological target: T4, α7GlyR G175K (Homo sapiens, UniProt P36544, G175K); experiment: Agonist potency at chimeric channel; assay type: cell-based
T4 construct: expressed in transfected cells
T4 sequence (P36544 with tags, fused parts or gaps G175K): as the sequence (P36544 with tags, fused parts or gaps) above, with G153K counted along it

α7GlyR P216I = biological target: T5, α7GlyR P216I (Homo sapiens, UniProt P36544, P216I); experiment: Agonist potency at chimeric channel; assay type: cell-based
T5 construct: expressed in transfected cells
T5 sequence (P36544 with tags, fused parts or gaps P216I): as the sequence (P36544 with tags, fused parts or gaps) above, with P194I counted along it

α7^L131A-GlyR = biological target: T6, α7^L131A-GlyR (Homo sapiens, UniProt P36544, L131A); assay type: cell-based; conditions: over α7-GlyR
T6 construct: expressed in transfected cells
T6 sequence (P36544 with tags, fused parts or gaps L131A limits assumed): as the sequence (P36544 with tags, fused parts or gaps) above, with L109A counted along it

[7] = test system: cortical neurons expressing PSAM^4-5HT3 HC; experiment: Chemogenetic activation of cortical neurons expressing PSAM^4-5HT3 HC; assay type: cell-based, mouse
Description: FIGS. 12A-12F show chemogenetic perturbation of cortical neuron activity. […] FIG. 12C) Cortical layer 2/3 neuron membrane properties were similar in PSAM^4-GlyR expressing neurons and intermingled untransfected control neurons. […] FIG. 12F) Cortical layer 2/3 neuron membrane properties are similar in PSAM^4-5HT3 HC expressing neurons and intermingled untransfected control neurons. Data are mean±SEM. Mann Whitney U-test, n.s. P>0.05, ***P<0.001.
Chemogenetic perturbation of cortical neuron activity was evaluated. […] Cortical layer 2/3 neuron membrane properties were similar in PSAM^4-GlyR expressing neurons and intermingled untransfected control neurons. […] Cortical layer 2/3 neuron membrane properties are similar in PSAM^4-5HT3 HC expressing neurons and intermingled untransfected control neurons. See, e.g., FIG. 12.

[8] = read-out: α7-5HT3 EC50, HEK cells, Table 3
[9] = read-out: Agonist potency; α7GlyR Q79G A298G G175K Y115F
[10] = read-out: Agonist potency; α7GlyR Q79G A298G Y115F K395 K396A
[11] = read-out: Agonist potency; α7GlyR Q79G G175K A298G
[12] = read-out: Agonist potency; α7GlyR Q79G W77F A298G
[13] = read-out: Agonist potency; α7GlyR R27D E41R Q79G Y115F

Compound	EC50 (5HT3-R; 5HT3-R, Table 10) [µM]	EC50 (α7-5HT3 [1]) [µM]	EC50 (α7-GlyR [2]) [µM]	EC50 (α4β2 nAChR; […], α4β2 nAChR, Table 10) [µM]	other results
Cc1nc2cc3c(cc2nc1-n1ccnc1)C1CNCC3C1 (centres unmarked) [compound 798]	1.1	> 30	> 30	28	
Cc1nc2cc3c(cc2nc1Cn1cncn1)C1CNCC3C1 (centres unmarked) [compound 807]	0.57	> 30	> 30	> 30	
COc1cnc2cc3c(cc2n1)C1CNCC3C1 (centres unmarked) [compound 793]					EC50 (5HT3-R): 0.19 µM; EC50 (α7-GlyR [3]): 19 µM
c1cncc(-c2nc3cc4c(cc3[nH]2)C2CNCC4C2)c1 (centres unmarked) [compound 786, 2-(pyridin-3-yl)-1,5,6,7,8,9-hexahydro-5,9-methanoimidazo[4′,5′:4,5]benzo[1,2-d]azepine]		> 100	> 100		
Cc1nc2cc3c(cc2nc1N(C)C)C1CNCC3C1 (centres unmarked) [compound 794]	1.7		> 30	> 30	
Cn1c(=O)cnc2cc3c(cc21)C1CNCC3C1 (centres unmarked) [compound 792]	40.5	> 30			EC50 (α7-GlyR [3]): > 30 µM
Clc1ccc(C2CC3CCC2N3)cn1 (centres unmarked) [Epibatidine]					EC50 ([4]; α7GlyR Q79G A298G G175K Y115F; read-out: Agonist potency): 0.011 µM; EC50 ([4]; α7GlyR Q79G A298G P216I; read-out: Agonist potency): 0.05 µM; EC50 ([4]; α7GlyR Q79G A298G Y115F K395 K396A; read-out: Agonist potency): 0.15 µM; EC50 ([4]; α7GlyR Q79G G175K A298G; read-out: Agonist potency): 0.0023 µM; EC50 ([4]; α7GlyR Q79G W77F A298G; read-out: Agonist potency): 0.37 µM; EC50 ([4]; α7GlyR R27D E41R Q79G Y115F; read-out: Agonist potency): 0.267 µM; EC50 (α7GABAc W298A (GABAA-ρ)): 0.42 µM
c1cc(-c2cnc3cc4c(cc3n2)C2CNCC4C2)ccn1 (centres unmarked) [compound 805]			> 30		EC50 (5HT3-R; […], 5HT3-R, Table 10): 1 µM; EC50 (α4β2 nAChR; […]): 4.9 µM
Cc1nc2cc3c(cc2nc1-c1cccnc1)C1CNCC3C1 (centres unmarked) [compound 802]			> 30		EC50 (5HT3-R; […], 5HT3-R, Table 10): 1.5 µM; EC50 (5HT3-R; potency for 5HT3-R): > 1 µM; EC50 (α4β2 nAChR; […]): > 30 µM; EC50 (α4β2 nAChR; potency for α4β2 nAChR): > 10 µM
CCN(CC)c1nc2cc3c(cc2nc1C)C1CNCC3C1 (centres unmarked) [compound 795]	1.1		> 30	> 30	EC50 (5HT3-R; read-out: potency for 5HT3-R): > 1 µM; EC50 (α4β2 nAChR; potency for α4β2 nAChR): > 10 µM
CCOc1cnc2cc3c(cc2n1)C1CNCC3C1 (centres unmarked) [compound 815]					In vivo potency ([5]; SNr silencing rotation assay in mice): 0.1 mpk; EC50 (α7-GlyR [3]): > 100 µM; α4β2 nAChR agonism (α4β2 nAChR): do not show evident α4β2 nAChR agonism; EC50 (α4β2 nAChR; read-out: EC50MP): > 30 µM; EC50 (α7-5HT3 [6]; read-out: EC50MP): > 100 µM
Cc1ccccc1-c1cnc2cc3c(cc2n1)C1CNCC3C1 (centres unmarked) [compound 780]		10.6	> 100		
c1ncn(-c2cnc3cc4c(cc3n2)C2CNCC4C2)n1 (centres unmarked) [compound 801]	4.4		> 30	26	
CN1C2CCCC1CC(NC(=O)c1nn(C)c3ccccc13)C2 (centres unmarked) [Granisetron, reference compound]					activation of channel (α7-5HT3 [6]): does not activate
c1c2c(cc3nc4c(nc13)CCCC4)C1CNCC2C1 [compound 785]	10.2		> 100		
COc1ccc(OC)c(C(=O)NC2C3CCN(CC3)C2Cc2cccnc2)c1 (mixture of isomers) [compound 0434]					EC50 (α7-GlyR [3]): > 10 µM; EC50 (α7-5HT3 [6]; [8]): > 10 µM
O=c1[nH]c2cc3c(cc2nc1-c1ccccc1)C1CNCC3C1 (centres unmarked) [compound 784]	6.2	> 30	> 30		
O=c1cccc2n1C[C@@H]1CNC[C@H]2C1 [Cytisine]					EC50 [4, 9]: 4.6 µM; EC50 ([4]; read-out: Agonist potency; α7GlyR Q79G A298G P216I): 5.5 µM; EC50 [4, 10]: > 30 µM; EC50 [4, 11]: 0.134 µM; EC50 [4, 12]: 14.1 µM; EC50 [4, 13]: > 30 µM; EC50 (α7GABAc W298A (GABAA-ρ)): 13.3 µM
Cc1nc2cc3c(cc2nc1Cn1cccn1)C1CNCC3C1 (centres unmarked) [compound 812]	11	> 100	> 100	> 100	
c1cn(-c2cnc3cc4c(cc3n2)C2CNCC4C2)cn1 (centres unmarked) [compound 800]	3.5		> 30	13.9	

Compound	EC50 (5HT3-R; 5HT3-R, Table 10) [µM]	EC50 (α7-5HT3 [1]) [µM]	EC50 (α7-GlyR [2]) [µM]	EC50 (α4β2 nAChR; […], α4β2 nAChR, Table 10) [µM]	other results
Cc1nc2cc3c(cc2n(C)c1=O)C1CNCC3C1 (centres unmarked) [compound 790]	4.3	> 100	> 100	> 30	
Cc1nc2cc3c(cc2nc1-c1ccncc1)C1CNCC3C1 (centres unmarked) [compound 803]			> 30		EC50 (5HT3-R; […], 5HT3-R, Table 10): 0.75 µM; EC50 (α4β2 nAChR; […]): 14 µM
Cc1nc2cc3c(cc2[nH]c1=O)C1CNCC3C1 (centres unmarked) [compound 783]	0.43		> 100		EC50 (α4β2 nAChR; […]): 43 µM
S=C(Nc1ccc(Cl)cc1)NC1CN2CCC1CC2 (centres unmarked) [compound 0354]					partial agonist activity (α7-5HT3 [6]; HEK cells, Table 3): 1.4 partial
O=C(NC1C2CCN(CC2)C1Cc1cccnc1)c1ccc(C(F)(F)F)cc1 (mixture of isomers) [compound 0436]					EC50 (α7-GlyR [3]): 0.31 µM; EC50 (α7-5HT3 [6]; [8]): 0.84 µM
CN1CCCC1c1cccnc1 (centres unmarked) [Nicotine]					increased potency (α7GlyR G175K): 10 fold; increased potency (α7GlyR P216I): > 4 fold
FC(F)(F)c1cnc2cc3c(cc2n1)C1CNCC3C1 (centres unmarked) [compound 788]	41	> 100	> 100	> 30	
Cc1nc2cc3c(cc2nc1-n1cncn1)C1CNCC3C1 (centres unmarked) [compound 808]	12.5	> 30	> 30	> 30	EC50 (5HT3-R; read-out: potency for 5HT3-R): > 1 µM; EC50 (α4β2 nAChR; potency for α4β2 nAChR): > 10 µM
c1cnc2cc3c(cc2n1)[C@@H]1CNC[C@H]3C1 [Varenicline]	1.4				enhanced potency (α7^L131A-GlyR): 8 fold; EC50 [4, 9]: 2.37 µM; EC50 [4, 10]: > 30 µM; EC50 [4, 11]: 0.022 µM; EC50 [4, 12]: 3.66 µM; EC50 [4, 13]: > 30 µM; EC50 (α7GABAc W298A (GABAA-ρ)): 6.27 µM; membrane potential and firing [7]: depolarizes and elicits firing; rotation response ([5]; low doses, intraperitoneal, not in sham operated or EGFP-alone mice): elicit contraversive rotation; doses at which circling contralateral to the silenced SNr was seen ([5]; mice): above 0.1 mpk; improvement in potency over anti-nicotine activity ([5]; mice): 10 fold; tachyphylaxis of the chemogenetic response ([5]; two doses separated by 5 hours): no tachyphylaxis
COc1nc2cc3c(cc2nc1C)C1CNCC3C1 (centres unmarked) [compound 791]	0.17		> 30	> 30	
CN1C2CCC1CC(NC(=S)c1c[nH]c3ccccc13)C2 (centres unmarked) [compound 0542]					EC50 (α7-5HT3 [6]; [8]): 3.8 µM
COc1nc2cc3c(cc2nc1-c1ccccc1)C1CNCC3C1 (centres unmarked) [compound 789]	0.51	> 100	> 100	> 30	
O=C(Nc1ccccc1)N[C@@H]1CN2CCC1CC2 [compound 0353]					EC50 (α7-GlyR [3]): 0.27 µM; EC50 (α7-5HT3 [6]; [8]): 0.65 µM
Cc1ccccc1-c1cnc2cc3c(cc2n1)C1CC3CN(C)C1 (centres unmarked) [compound 782]	> 30	> 100	> 100		
c1ccn(-c2cnc3cc4c(cc3n2)C2CNCC4C2)c1 (centres unmarked) [compound 799]	11.7		> 100	3.5	
O=C(NC1CN2CCC1CC2)c1ccc(C(F)(F)F)nc1 (centres unmarked) [compound 0296]					EC50 (α7-5HT3 [6]; [8]): > 100 µM
O=C(N[C@@H]1CN2CCC1CC2)c1c[nH]c2ccccc12 [compound 0676]					EC50 (α7-5HT3 [6]; [8]): 0.03 µM
c1cncc(-c2cnc3cc4c(cc3n2)C2CNCC4C2)c1 (centres unmarked) [compound 804]			> 30		EC50 (5HT3-R; […], 5HT3-R, Table 10): 2 µM; EC50 (α4β2 nAChR; […]): 4.8 µM
O=C(N[C@@H]1CN2CCC1CC2)c1ccc(C(F)(F)F)cn1 [compound 0295]					EC50 (α7-GlyR [3]): > 100 µM; EC50 (α7-5HT3 [6]; [8]): > 100 µM
